The record followed here is patent US20190083521A1, “COMBINATION THERAPY FOR TREATING CANCER” (Epizyme, Inc., priority 2014, published 2019).

What is called GI50 is the concentration giving 50% growth inhibition.

In one assay the test system is THP-1 (MLL-AF9) cells. Briefly: Example 7 retest: EPZ-5676 pre-treatment, second compound 72 h, Cell Titer Glo, growth inhibition. On the set-up: GI100: unit not given here. Format: cell-based. The following applies: NRAS G12D. The method, then: Cells were split using EPZ-5676 or DMSO containing growth media and further incubated for an additional 3-day pre-treatment time. Cells were finally seeded in growth media containing EPZ-5676 or DMSO in 96-well plates. Cells were then treated with a second compound for 72 hours. After this time, plates were developed for endpoint analysis using Cell Titer Glo to measure ATP content, which is used as an indicator of cell viability.
(§1) “N/D” means the GI100 of the second compound could not be determined for both conditions and “-” means not tested.
Growth Inhibition (GI) as a measure of cell viability: The cell viability of vehicle was measured at the time of dosing the second agent (T0) and after seventy-two hours (T72). A GI reading of 0% represents no growth inhibition—cells treated with test compound as compared to T72 vehicle signals were measured. […] A GI 200% represents complete death of all cells in the culture well. Compounds reaching an activity plateau of GI 200% are considered cytotoxic. GI is calculated by applying the following test and equation: […]

The subject of a further assay is ML-2 (MLL-AF6) cells. The description is as above. In kind it is cell-based. Also noted: GI100: unit not given here. The following applies: ML-2 (MLL-AF6); KRAS A146T (het); second compound, 72 h. The method, then:
(§2) Cells were then treated with a second compound for 72 hours. After this time, plates were developed for endpoint analysis using Cell Titer Glo to measure ATP content, which is used as an indicator of cell viability.
as §1
(§3) Growth Inhibition (GI) as a measure of cell viability: The cell viability of vehicle was measured at the time of dosing the second agent (T0) and after seventy-two hours (T72). […] A GI 200% represents complete death of all cells in the culture well. Compounds reaching an activity plateau of GI 200% are considered cytotoxic. GI is calculated by applying the following test and equation: […]

The subject of another assay is RS4-11 (MLL-AF4) cells. The assay is described as above. In kind it is cell-based. On the set-up: GI100: unit not given here. The following applies: RS4-11 (MLL-AF4), Ras mutation status: None known, second compound, 72 h. The method, then: as §2, §1, §3
In assay [1] the test system is OCI-AML-4 (MLL-ENL) cells. The description is as above. In kind it is cell-based. The note with it: OCI-AML-4 (MLL-ENL). The protocol:
as §2, §1, §3

The subject of a further assay is SKM-1 (non-MLLr) cells. Described as above. In kind it is cell-based, human. On the set-up: GI100: unit not given here. The note with it: SKM-1 (non-MLLr). The protocol:
as §2, §1, §3

In a further assay the test system is MOLM-13 (MLL-AF9) cells. The description is as above. In kind it is cell-based, human. On the set-up: GI100: unit not given here. The note with it: MOLM-13 (MLL-AF9), Ras mutation status: None known, second compound, 72 h. The method, then: as §2, §1, §3
A further assay deals with SKM-1 cells. As to the kind of experiment: Example 6 combination screen: 300 nM EPZ-5676 pre-treatment, second compound 72 h, ATPLite, IC50 shift. Format: cell-based, human. The following applies: SKM-1 cells; 300 nM EPZ-5676 pre-treatment (4 + 3 days) vs DMSO, then 2nd compound 72 h; ATPLite; IC50 shift of 2nd compound. The protocol:
(§4) Cells were then equilibrated in incubators for 24 hours before treatment with a second compound. Treated assay plates were incubated with a second compound for 72 hours. After this time, plates were developed for endpoint analysis using ATPLite to measure ATP content, which is used as an indicator of cell viability.
(§5) “N/D” means that IC50 of the second compound could not be determined for both conditions.
(In general: Cellular ATP, detected with luciferase, serves as a proxy for viable cell number.)

For another assay, the system named is MOLM-13 cells. The assay is described as above. In kind it is cell-based, human. The following applies: 300 nM EPZ-5676 pre-treatment (4 + 3 days) vs DMSO, then 2nd compound 72 h, IC50 shift of 2nd compound. The protocol: as §4, §5
The test system of a further assay is MV4-11 (MLL-AF4) cells. As to the kind of experiment: Combination proliferation assay with Compound A2 (CellTiter-Glo, Chou-Talalay CI). In kind it is cell-based, human. The following applies: MV4-11 (MLL-AF4); 7 Day Cotreatment Model. The protocol: The acute myelogenous leukemia cell lines MV4-11 (MLL-AF4) and MOLM-13 (MLL-AF9) were obtained from American Type Culture Collection (ATCC; Rockville, Md.) and Deutsche Sammlung von Mikroorganismen and Zellkulturen (DSMZ; Braunschweig, Germany) respectively.
Studies were performed using MLL-rearranged cell lines in vitro to evaluate the anti-proliferative effect of a combination of two agents together on cell growth. Initial proliferation studies were performed to determine the IC50 of a given compound in each cell line. The cell counts were measured by ATP quantitation using the Promega Cell Titer Glo kit and luminescence values corresponded to the amount of ATP in a given well.
Compounds were evaluated for synergy in the co-treatment phase by testing the compounds in a concentration range which was bracketed around their IC50 values. The compounds were plated to a 96 well plate in a matrix format (FIG. 3) which includes increasing concentrations of each drug in the combination in a constant ratio, in addition to the effect of each compound alone in the study. Cells were seeded and grown in the log-linear phase for 3 or 7 days in the co-treatment phase. Minimum inhibition (DMSO alone) controls were used in each plate to calculate fraction affected (Fa) of a test well. DMSO concentration was kept at 0.1% v/v.
The drug combination analysis was performed utilizing the Chou-Talalay method Synergy was determined using the software package Calcusyn by Biosoft. The combination index (CI) is a quantitative term used to describe the level of synergy or antagonism in a given test system. A combination index less than one indicates synergy, and a CI greater than one indicates antagonism. Further, strong synergism is achieved when the CI value falls below 0.3.
The HP-D300 digital dispenser (Tecan) was used to dispense compounds in a combinatorial matrix. […] Cell viability was measured via ATP content using CellTiter-Glo® (Promega).
Viability was determined using CellTiter-Glo® (Promega).
Proliferation studies were performed using MOLM-13, MV4-11 and SKM-1 cell lines in vitro to evaluate the cancer cell killing effect of a combination of two agents together on cell growth. Initial proliferation studies were performed to determine the IC50 values of a given compound in each cell line. The cell counts were measured by ATP quantitation using the Promega Cell Titer Glo kit and luminescence values correspond to the amount of ATP in a given well.
These studies were performed to evaluate both the combinatorial effect of compounds on cell killing and the durability of the effect by washing out one of the agents.
Compounds evaluated for synergy in the co-treatment phase were tested in a range which was bracketed around the IC50's. The compounds were plated to a 96 well plate in a matrix format which includes increasing concentrations of each drug in the combination in a constant ratio, in addition to the effect of each compound alone in the study. Cells were seeded and grown in the log-linear phase for 3 or 7 days in the cotreatment phase. Maximum and minimum inhibition (DMSO alone) controls were used in each plate to calculate fraction affected (Fa) of a test well. DMSO concentration was kept at 0.1% v/v. The drug combination analysis was performed utilizing the Chou-Talalay method. Synergy was determined using the software package Calcusyn by Biosoft. The combination index (CI) is the term used to describe the level of synergy or antagonism in a given test system. A combination index less than one indicates synergy, and a CI greater than one indicates antagonism.
The drug combination analysis was performed using the Chou-Talalay method. Graphs representing values of combination index (CI) versus Fractional effect (Fa) known as Fa-CI plots were generated and synergy was evaluated. Drug synergy was statistically defined by CI values less than 1, antagonism by CI>1 and additive effect by CI equal to 1.

The mark [2] stands for this setting: 300 nM EPZ-5676 pre-treatment vs DMSO.
Setting [3] is: NRAS Q61R (het), second compound, 72 h.
The mark [4] stands for this setting: KRAS K117N (homo), second compound, 72 h.

Bounds are passed on as bounds.

`Cn1nccc1Nc1nccc(-c2ccn([C@H](CO)c3ccc(Cl)c(F)c3)c(=O)c2)n1` [GDC0994]: the GI50 in the assay with THP-1 (MLL-AF9) cells stood at 2850 nM; in the assay on ML-2 (MLL-AF6) cells it was 590 nM; in the assay with RS4-11 (MLL-AF4) cells (Homo sapiens), 1300 nM; in [1] (setting [3]), 904 nM; in the assay with SKM-1 (non-MLLr) cells (setting [4]), 270 nM; in the assay with MOLM-13 (MLL-AF9) cells (Homo sapiens), 3080 nM. Moreover, the GI100 is above 10 in the assay on THP-1 (MLL-AF9) cells; 2.55 in the assay with ML-2 (MLL-AF6) cells; 2.505 with RS4-11 (MLL-AF4) cells; 3.068 in assay [1] (setting [3]); 1.84 in the assay with SKM-1 (non-MLLr) cells (setting [4]); 4.26 in the assay with MOLM-13 (MLL-AF9) cells. Further, the “Combination result with EPZ-5676, Retest” value (in [1] (setting [2]); in the assay on SKM-1 (non-MLLr) cells (setting [2])) was “Synergy (considered synergistic if the GI100 (Growth inhibition 100) value of the second compound decreased by 2-fold or more when EPZ-5676 was added as compared to the DMSO control)” each time. Further, the “Result (combination with EPZ-5676)” value (in [1] (NRAS Q61R (het)); with SKM-1 (non-MLLr) cells (KRAS K117N (homo))) was “Synergy (considered synergistic if the GI100 (Growth inhibition 100) value of the second compound decreased by 2-fold or more when EPZ-5676 was added as compared to the DMSO control)” in each case.
Take `COc1cc2c(NC3CCN(C4CCCCC4)CC3)nc(N3CCCN(C(C)C)CC3)nc2cc1OCCCN1CCCCC1` [UNC 0646]: in the assay on SKM-1 cells, the “Summary of Combination Studies: SKM-1” value is on record as “Synergy (considered synergistic if the IC50 value of the second compound decreased by 2-fold or more when EPZ-5676 was added as compared to the DMSO control)”. In addition, the “Summary of Combination Studies: MOLM-13” value with MOLM-13 cells is “Synergy (considered synergistic if the IC50 value of the second compound decreased by 2-fold or more when EPZ-5676 was added as compared to the DMSO control)”.
As for `COc1ccc(-c2ccc3c(N4CCOCC4)nc(N4C[C@@H](C)O[C@@H](C)C4)nc3n2)cc1CO` [KU 0063794], the “Summary of Combination Studies: SKM-1” value in the assay on SKM-1 cells is given as “Synergy (considered synergistic if the IC50 value of the second compound decreased by 2-fold or more when EPZ-5676 was added as compared to the DMSO control)”. Further, the “Summary of Combination Studies: MOLM-13” value with MOLM-13 cells is reported as “Synergy (considered synergistic if the IC50 value of the second compound decreased by 2-fold or more when EPZ-5676 was added as compared to the DMSO control)”.
On to `O=C(/C=C/c1ccc(O)c(O)c1)OCCc1ccccc1` [CAPE], for which the “Summary of Combination Studies: SKM-1” value in the assay with SKM-1 cells is “Synergy (considered synergistic if the IC50 value of the second compound decreased by 2-fold or more when EPZ-5676 was added as compared to the DMSO control)”. Moreover, the “Summary of Combination Studies: MOLM-13” value with MOLM-13 cells is listed as “Synergy (considered synergistic if the IC50 value of the second compound decreased by 2-fold or more when EPZ-5676 was added as compared to the DMSO control)”.
`O=C(Nc1ccccc1-c1cn2c(CN3CCNCC3)csc2n1)c1cnc2ccccc2n1` [SRT-1720]: the “Summary of Combination Studies: MOLM-13” value in the assay on MOLM-13 cells is given as “Synergy (considered synergistic if the IC50 value of the second compound decreased by 2-fold or more when EPZ-5676 was added as compared to the DMSO control)”. In addition, in the assay on MV4-11 (MLL-AF4) cells, the “Combination effect with Compound A2 (Table 4)” value is “Synergy (Drug synergy was statistically defined by CI values less than 1)”.
Take `O=C(c1cn(Cc2cncn2Cc2ccc(Br)cc2)cc1-c1cccc2ccccc12)N1CCOCC1` [LB42708]: the “Summary of Combination Studies: SKM-1” value in the assay with SKM-1 cells was “Synergy (considered synergistic if the IC50 value of the second compound decreased by 2-fold or more when EPZ-5676 was added as compared to the DMSO control)”. In addition, the “Summary of Combination Studies: MOLM-13” value in the assay on MOLM-13 cells was “Synergy (considered synergistic if the IC50 value of the second compound decreased by 2-fold or more when EPZ-5676 was added as compared to the DMSO control)”.
